# Laboratory results as given in patent US20170217956A1, “AZAINDOLE RETINOIC ACID RECEPTOR-RELATED ORPHAN RECEPTOR MODULATORS AND USES THEREOF” (INNOV17 LLC, priority 2014, published 2017).
# Tests used:
# Type in all cases: cell-based
# Details in all cases: 72 h; human CD4+ T cells under TH17-polarizing conditions, 3 days, supernatant ELISA, 0.1% DMSO
# IL-17A = assay: Human TH17 cytokine inhibition as measured by ELISA (IL-17A)
# Description: (§1) Peripheral blood mononuclear cells (PBMCs) were sourced from freshly prepared leukocyte enriched plasma (buffy coat) from healthy donors (New York Blood Center). PBMCs were isolated by density gradient centrifugation using Ficoll-Paque™ PLUS (GE Healthcare). Human CD4+ T cells were seeded into 96-well plates (5×10^4 cells/well) and activated with plate-bound anti-human (h)-CD3 antibody and soluble h-aCD28 (both at 1 ug/ml; eBioscience) and differentiated into TH17 cells with 20 ng/mL h-IL-6, 5 ng/mL h-TGF-β1, 10 ng/mL h-IL-23 (eBioscience) and 10 ng/mL IL-1β (Miltenyi Biotec) in serum-free TexMACS Medium (Miltenyi Biotec) supplemented with 1% Penicillin/Streptomycin (Lonza) for 3 days. CD4+ T cells propagated under TH17-polarizing conditions were cultured in the presence or absence of various concentrations of compounds with a final concentration of 0.1% DMSO. Supernatants were collected and stored at −20° C. until assayed for IL-17A, IL-17F and IL-21 levels by “Ready-Set-Go” ELISA kits (eBioscience) as per manufacturer's instructions. Endpoint absorbance was read at 450 nm using a microplate reader (Perkin Elmer).
# IL-17F = assay: Human TH17 cytokine inhibition as measured by ELISA (IL-17F)
# Description: as §1
# IL-21 = assay: Human TH17 cytokine inhibition as measured by ELISA (IL-21)
# Description: as §1
# IL-22 = assay: Human TH17 cytokine inhibition as measured by ELISA (IL-22)
IC50 (IL-17A),IC50 (IL-17F),IC50 (IL-21),IC50 (IL-22),Structure (SMILES)
< 10 µM,< 10 µM,< 10 µM,,"C[C@@H]1C[C@H](Cn2ccc3nc(-c4cn[nH]c4)ccc32)CN1C(=O)CCc1ccccc1 (racemic) [Example 41, rac.-cis-1-(4-((5-(1H-pyrazol-4-yl)-1H-pyrrolo[3,2-b]pyridin-1-yl)methyl)-2-methylpyrrolidin-1-yl)-3-phenylpropan-1-one]"
< 10 µM,< 10 µM,< 10 µM,< 10 µM,"C[C@H]1C[C@H](Cn2ccc3nc(-c4cn[nH]c4)ccc32)CN1C(=O)CCc1ccccc1 (racemic) [Example 40, rac.-trans-1-(4-((5-(1H-pyrazol-4-yl)-1H-pyrrolo[3,2-b]pyridin-1-yl)methyl)-2-methylpyrrolidin-1-yl)-3-phenylpropan-1-one]"
